Biological target: rat mGlu2 (Rattus norvegicus (Rat), UniProt P31421)
Experiment: mGlu2 Ca2+ flux assay
Format: cell-based
Conditions: for IC50: Gα15 HEK293 cells stably expressing rat mGlu2, glutamate EC80, >10,000 = no plateau, >30,000 = no measurable activity; for remaining activity at 30 µM: amplitude of response in the presence of 30 μM test compound as percentage of maximal response to glutamate, read-out: rat mGlu2 Glu max; for NAM designation: concentration-dependent decrease in the glutamate EC80 response
Description: Gα15 HEK293 cells stably expressing rat mGlu2 were plated in black-walled, clear-bottomed, poly-D-lysine coated 384-well plates in 20 μL of assay medium (DMEM containing 10% dialyzed FBS, 20 mM HEPES, and 1 mM sodium pyruvate) at a density of 12K cells/well. The cells were grown overnight at 37° C. in the presence of 5% CO2. The next day, medium was removed and the cells incubated with 20 μL of 2.3 μM Fluo-4, AM prepared as a 2.3 mM stock in DMSO and mixed in a 1:1 ratio with 10% (w/v) pluronic acid F-127 and diluted in assay buffer (Hank's balanced salt solution, 20 mM HEPES, and 2.5 mM probenecid) for 45 minutes at 37° C. Dye was removed, 20 μL of assay buffer was added, and the plate was incubated for 5 minutes at room temperature.
Ca^2+ flux was measured using the Functional Drug Screening System (FDSS7000, Hamamatsu, Japan). After establishment of a fluorescence baseline for about 3 seconds, the compounds of the present invention were added to the cells, and the response in cells was measured. 2.3 minutes later an EC20 concentration of the mGlu2 receptor agonist glutamate was added to the cells, and the response of the cells was measured for 1.9 minutes; an EC80 concentration of agonist was added and readings taken for an additional 1.7 minutes. All test compounds were dissolved and diluted to a concentration of 10 mM in 100% DMSO. Compounds were then serially diluted 1:3 in DMSO into 10 point concentration response curves, transferred to daughter plates, and further diluted into assay buffer to a 2× stock. Calcium fluorescence measures were recorded as fold over basal fluorescence; raw data was then normalized to the maximal response to glutamate. Antagonism of the agonist response of the mGlu2 receptor in the present invention was observed as a decrease in response to nearly maximal concentrations of glutamate in the presence of compound compared to the response to glutamate in the absence of compound.
The raw data file containing all time points was used as the data source in the analysis template. This was saved by the FDSS as a tab-delimited text file. Data were normalized using a static ratio function (F/F0) for each measurement of the total 360 values per well divided by each well's initial value. Data were then reduced to peak amplitudes (Max−Initial Min) using a time range that starts approximately 3 seconds prior to the glutamate EC80 addition and continues for approximately 90 seconds. This is sufficient time to capture the peak amplitude of the cellular calcium response. Individual amplitudes were expressed as % ECMax by multiplying each amplitude by 100 and then dividing the product by the mean of the amplitudes derived from the glutamate ECMax-treated wells. IC50 values for test compounds were generated by fitting the normalized values versus the log of the test compound concentration (in mol/L) using a 4 parameter logistic equation where none of the parameters were fixed. Each of the three values collected at each concentration of test compound were weighted evenly.
For NAMs, potency (IC50) and maximum response (% Glu Max), i.e. the amplitude of response in the presence of 30 μM test compound as a percentage of the maximal response to glutamate, are reported. […] Compounds with no measurable activity are designated as “>30,000 nM” since the top concentration of compound tested in the assay is 30 μM.

Chain of rat mGlu2 (P31421 19-872): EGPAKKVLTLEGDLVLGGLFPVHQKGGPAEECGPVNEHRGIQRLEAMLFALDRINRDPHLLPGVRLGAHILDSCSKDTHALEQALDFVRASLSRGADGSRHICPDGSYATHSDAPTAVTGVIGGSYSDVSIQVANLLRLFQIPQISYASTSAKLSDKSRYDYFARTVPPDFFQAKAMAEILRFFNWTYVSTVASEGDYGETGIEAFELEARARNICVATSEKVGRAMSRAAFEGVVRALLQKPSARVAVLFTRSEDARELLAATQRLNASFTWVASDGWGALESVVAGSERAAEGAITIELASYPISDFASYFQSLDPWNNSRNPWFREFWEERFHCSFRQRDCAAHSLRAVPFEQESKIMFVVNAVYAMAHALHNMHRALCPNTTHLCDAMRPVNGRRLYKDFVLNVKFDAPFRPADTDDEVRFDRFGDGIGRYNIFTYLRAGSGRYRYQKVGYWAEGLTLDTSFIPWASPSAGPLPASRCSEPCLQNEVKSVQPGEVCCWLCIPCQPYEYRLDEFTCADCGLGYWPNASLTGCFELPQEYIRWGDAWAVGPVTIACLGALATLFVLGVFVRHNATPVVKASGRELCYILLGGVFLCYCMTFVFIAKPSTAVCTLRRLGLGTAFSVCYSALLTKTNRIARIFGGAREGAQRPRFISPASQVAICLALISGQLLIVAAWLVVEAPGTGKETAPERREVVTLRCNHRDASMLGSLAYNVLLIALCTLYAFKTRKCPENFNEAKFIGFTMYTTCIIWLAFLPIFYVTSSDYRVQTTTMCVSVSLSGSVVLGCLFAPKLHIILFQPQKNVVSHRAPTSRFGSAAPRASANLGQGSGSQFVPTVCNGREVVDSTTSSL

IC50 [µM]	remaining activity at 30 µM [%]	NAM designation	SMILES
6.85	5.12		N#Cc1cc(-c2ccc(F)cc2)c(NCC2CCOCC2)cn1 [Compound 1, 4-(4-fluorophenyl)-5-(((tetrahydro-2H-pyran-4-yl)methyl)amino)picolinonitrile]
> 10	47.5		N#Cc1cc(-c2ccc(F)cc2)c(NCCN2CCOCC2)cn1 [Compound 2, 4-(4-fluorophenyl)-5-((2-morpholinoethyl)amino)picolinonitrile]
> 10	52.4		CN(CCN1CCOCC1)c1cnc(C#N)cc1-c1ccc(F)cc1 [Compound 3, 4-(4-fluorophenyl)-5-(methyl(2-morpholinoethyl)amino)picolinonitrile]
> 10	46.6		CC(CN1CCOCC1)Nc1cnc(C#N)cc1-c1ccc(F)cc1 (centres unmarked) [Compound 4, 4-(4-fluorophenyl)-5-((1-morpholinopropan-2-yl)amino)picolinonitrile]
> 10	36.2		CC(CNc1cnc(C#N)cc1-c1ccc(F)cc1)N1CCOCC1 (centres unmarked) [Compound 5, 4-(4-fluorophenyl)-5-((2-morpholinopropyl)amino)picolinonitrile]
> 10	49.2		N#Cc1cc(-c2ccc(F)cc2)c(NCCCN2CCOCC2)cn1 [Compound 6, 4-(4-fluorophenyl)-5-((3-morpholinopropyl)amino)picolinonitrile]
> 30			N#Cc1cc(-c2ccc(F)cc2)c(OCc2ccc(Cl)nc2)cn1 [Compound 7, 5-((6-Chloropyridin-3-yl)methoxy)-4-(4-fluorophenyl)picolinonitrile]
0.429	2		NC(=O)c1cc(-c2ccc(F)cc2)c(OCc2ccc(Cl)nc2)cn1 [Compound 8, 5-((6-chloropyridin-3-yl)methoxy)-4-(4-fluorophenyl)picolinamide]
> 30			N#Cc1cc(-c2ccc(F)cc2)c(OCC2CCOCC2)cn1 [Compound 9, 4-(4-fluorophenyl)-5-((tetrahydro-2H-pyran-4-yl)methoxy)picolinonitrile]
> 10	37		N#Cc1cc(-c2ccc(F)cc2)c(OCc2cccnc2)cn1 [Compound 10, 4-(4-fluorophenyl)-5-(pyridin-3-ylmethoxy)picolinonitrile]
7.11	29.9		N#Cc1cccc(COc2cnc(C#N)cc2-c2ccc(F)cc2)c1 [Compound 11, 5-((3-cyanobenzyl)oxy)-4-(4-fluorophenyl)picolinonitrile]
> 30			N#Cc1cc(-c2ccc(F)cc2)c(OCc2cc(F)cc(F)c2)cn1 [Compound 12, 5-((3,5-difluorobenzyl)oxy)-4-(4-fluorophenyl)picolinonitrile]
> 30			N#Cc1cc(-c2ccc(F)cc2)c(OCc2cncc(Cl)c2)cn1 [Compound 13, 5-((5-chloropyridin-3-yl)methoxy)-4-(4-fluorophenyl)picolinonitrile]
> 30			Cc1ccc(COc2cnc(C#N)cc2-c2ccc(F)cc2)cn1 [Compound 14, 4-(4-fluorophenyl)-5-((6-methylpyridin-3-yl)methoxy)picolinonitrile]
> 30			COc1ccc(COc2cnc(C#N)cc2-c2ccc(F)cc2)cn1 [Compound 15, 4-(4-fluorophenyl)-5-((6-methoxypyridin-3-yl)methoxy)picolinonitrile]
> 30			CC(Oc1cnc(C#N)cc1-c1ccc(F)cc1)c1cccnc1 (centres unmarked) [Compound 16, 4-(4-fluorophenyl)-5-(1-(pyridin-3-yl)ethoxy)picolinonitrile]
1.58	62	(Partial NAM)	N#Cc1cc(-c2ccc(F)cc2)c(OCc2ccncc2)cn1 [Compound 17, 4-(4-fluorophenyl)-5-(pyridin-4-ylmethoxy)picolinonitrile]

IC50 [µM]	remaining activity at 30 µM [%]	NAM designation	SMILES
2.69	47.5	(Partial NAM)	Cc1cc(COc2cnc(C#N)cc2-c2ccc(F)cc2)ccn1 [Compound 18, 4-(4-fluorophenyl)-5-((2-methylpyridin-4-yl)methoxy)picolinonitrile]
> 10	27.1		CC(Oc1cnc(C#N)cc1-c1ccc(F)cc1)c1ccncc1 (centres unmarked) [Compound 19, 4-(4-fluorophenyl)-5-(1-(pyridin-4-yl)ethoxy)picolinonitrile]
> 10	37.9		N#Cc1cc(-c2ccc(F)cc2)c(OCc2ccnc(C(F)(F)F)c2)cn1 [Compound 20, 4-(4-fluorophenyl)-5-((2-(trifluoromethyl)pyridin-4-yl)methoxy)picolinonitrile]
3.49	16.1		N#Cc1cc(-c2ccc(F)cc2)c(OCc2ccc3nccn3c2)cn1 [Compound 21, 4-(4-fluorophenyl)-5-(imidazo[1,2-a]pyridin-6-ylmethoxy)picolinonitrile]
> 10	11.1		Cn1ccc(COc2cnc(C#N)cc2-c2ccc(F)cc2)n1 [Compound 22, 4-(4-fluorophenyl)-5-((1-methyl-1H-pyrazol-3-yl)methoxy)picolinonitrile]
> 30			N#Cc1cc(-c2ccc(F)cc2)c(OCCc2cccnc2)cn1 [Compound 23, 4-(4-fluorophenyl)-5-(2-(pyridin-3-yl)ethoxy)picolinonitrile]
> 30			N#Cc1cc(-c2ccc(F)cc2)c(OCCN2CCOCC2)cn1 [Compound 24, 4-(4-fluorophenyl)-5-(2-morpholinoethoxy)picolinonitrile]
> 10	39		N#Cc1cc(-c2ccc(F)cc2)c(OCCOc2cccnc2)cn1 [Compound 25, 4-(4-fluorophenyl)-5-(2-(pyridin-3-yloxy)ethoxy)picolinonitrile]
> 30			N#Cc1cc(-c2ccc(F)cc2)c(OC2CCN(c3ccnc(C(F)(F)F)c3)CC2)cn1 [Compound 26, 4-(4-fluorophenyl)-5-((1-(2-(trifluoromethyl)pyridin-4-yl)piperidin-4-yl)oxy)picolinonitrile]
> 30			N#Cc1cc(-c2ccc(F)cc2)c(OC2CCN(c3ccnc(C(F)(F)F)c3)C2)cn1 (centres unmarked) [Compound 27, 4-(4-fluorophenyl)-5-((1-(2-(trifluoromethyl)pyridin-4-yl)pyrrolidin-3-yl)oxy)picolinonitrile]
> 30			N#Cc1cc(-c2ccc(F)cc2)c(OC2CN(c3ccnc(C(F)(F)F)c3)C2)cn1 [Compound 28, 4-(4-fluorophenyl)-5-((1-(2-(trifluoromethyl)pyridin-4-yl)azetidin-3-yl)oxy)picolinonitrile]
4.25	65.2	(Partial NAM)	N#Cc1cc(-c2ccc(F)cc2)c(OCCOCc2ccccc2)cn1 [Compound 29, 5-(2-(benzyloxy)ethoxy)-4-(4-fluorophenyl)picolinonitrile]
0.401	18.7	(Partial NAM)	NC(=O)c1cc(-c2ccc(F)cc2)c(OCc2cc(F)cc(F)c2)cn1 [Compound 30, 5-((3,5-difluorobenzyl)oxy)-4-(4-fluorophenyl)picolinamide]
0.395	1.46	(Partial NAM)	COc1ccc(-c2cc(C(N)=O)ncc2OCc2cc(F)cc(F)c2)c(F)c1 [Compound 31, 5-((3,5-difluorobenzyl)oxy)-4-(2-fluoro-4-methoxyphenyl)picolinamide]
> 10	35.1		NC(=O)c1cc(-c2ccc(C(F)(F)F)nc2)c(OCc2cc(F)cc(F)c2)cn1 [Compound 32, 5′-((3,5-difluorobenzyl)oxy)-6-(trifluoromethyl)[3,4′-bipyridine]-2′-carboxamide]
1.69	2.29		NC(=O)c1cc(-c2ccc(F)cc2)c(OCc2ccc(Br)cc2)cn1 [Compound 33, 5-((4-bromobenzyl)oxy)-4-(4-fluorophenyl)picolinamide]
